Reference: US12612380B2, “Non-lysosomal glucosylceramidase inhibitors and uses thereof” (ALECTOS THERAPEUTICS INC., priority 2019, dated 2026)
Like-named read-outs stand apart in the source and are kept apart here.

What was measured:
[1] = Brain concentration when administered in vivo; settings: compared to a suitable reference compound, e.g. NB-DNJ (miglustat) or AMP-DNM
From the text: Permeability can be assessed using a variety of standard experimental techniques, including without limitation in situ perfusion, ex vivo tissue diffusion, in vitro cell monolayers (e.g. Caco-2 cells, MDCK cells, LLC-PK1 cells), and artificial cell membranes (e.g. PAMPA assay); suitable techniques for measuring effective permeability (Peff) or apparent permeability (Papp) are reviewed for example by Volpe in The AAPS Journal, 2010, 12(4), 670-678. In some embodiments, one or more of the compounds according to the invention may show enhanced permeability when tested in one or more of these assays for determining Peff or Papp. […] In some embodiments, “enhanced permeability” means an increase in measured Peff or Papp by any value between about 10% and about 100%, or of any integer value between about 10% and about 100%, for example, about 10%, 20%, 30%, 40%, 50%, 60%, 70%, 80%, 90%, 100%, or over 100%, or an increase by about 1-fold, 2-fold, or 3-fold, or more, as compared to a suitable reference compound such as, for example, N-butyldeoxynojirimycin (NB-DNJ, miglustat) or N-(5-adamantane-1-yl-methoxy)pentyl)-deoxynojirimycin (AMP-DNM, Genz-529648). In some embodiments, “enhanced permeability” means a measurable Papp value (i.e. a value greater than zero) in a suitable assay to measure Papp using in vitro cell monolayers. In some embodiments, “enhanced permeability” means a Papp value greater than 2×10^−6 cm/s in a suitable assay to measure Papp using in vitro cell monolayers. In alternative embodiments, “enhanced permeability” means a Papp value in the range 2×10^−6 cm/s to 40×10^−6 cm/s in a suitable assay to measure Papp using in vitro cell monolayers. In some embodiments, “higher brain concentration” means an increase in measured brain concentration when the compound is administered in vivo by any value between about 10% and about 100%, or of any integer value between about 10% and about 100%, for example, about 10%, 20%, 30%, 40%, 50%, 60%, 70%, 80%, 90%, 100%, or over 100%, or an increase by about 1-fold, 2-fold, 3-fold, 4-fold, 5-fold, 10-fold, 20-fold, 30-fold, 40-fold, or 50-fold, or more, as compared to a suitable reference compound such as, for example, N-butyldeoxynojirimycin (NB-DNJ, miglustat) or N-(5-adamantane-1-yl-methoxy)pentyl)-deoxynojirimycin (AMP-DNM, Genz-529648).

[2] = target: T1, GBA2 (Homo sapiens, UniProt Q9HCG7); test: Binding specificity (selectivity) for GBA2 over other enzymes; assay type: biochemical; settings: compared to a suitable reference compound, e.g. NB-DNJ (miglustat) or AMP-DNM
T1 sequence (Q9HCG7 1-927): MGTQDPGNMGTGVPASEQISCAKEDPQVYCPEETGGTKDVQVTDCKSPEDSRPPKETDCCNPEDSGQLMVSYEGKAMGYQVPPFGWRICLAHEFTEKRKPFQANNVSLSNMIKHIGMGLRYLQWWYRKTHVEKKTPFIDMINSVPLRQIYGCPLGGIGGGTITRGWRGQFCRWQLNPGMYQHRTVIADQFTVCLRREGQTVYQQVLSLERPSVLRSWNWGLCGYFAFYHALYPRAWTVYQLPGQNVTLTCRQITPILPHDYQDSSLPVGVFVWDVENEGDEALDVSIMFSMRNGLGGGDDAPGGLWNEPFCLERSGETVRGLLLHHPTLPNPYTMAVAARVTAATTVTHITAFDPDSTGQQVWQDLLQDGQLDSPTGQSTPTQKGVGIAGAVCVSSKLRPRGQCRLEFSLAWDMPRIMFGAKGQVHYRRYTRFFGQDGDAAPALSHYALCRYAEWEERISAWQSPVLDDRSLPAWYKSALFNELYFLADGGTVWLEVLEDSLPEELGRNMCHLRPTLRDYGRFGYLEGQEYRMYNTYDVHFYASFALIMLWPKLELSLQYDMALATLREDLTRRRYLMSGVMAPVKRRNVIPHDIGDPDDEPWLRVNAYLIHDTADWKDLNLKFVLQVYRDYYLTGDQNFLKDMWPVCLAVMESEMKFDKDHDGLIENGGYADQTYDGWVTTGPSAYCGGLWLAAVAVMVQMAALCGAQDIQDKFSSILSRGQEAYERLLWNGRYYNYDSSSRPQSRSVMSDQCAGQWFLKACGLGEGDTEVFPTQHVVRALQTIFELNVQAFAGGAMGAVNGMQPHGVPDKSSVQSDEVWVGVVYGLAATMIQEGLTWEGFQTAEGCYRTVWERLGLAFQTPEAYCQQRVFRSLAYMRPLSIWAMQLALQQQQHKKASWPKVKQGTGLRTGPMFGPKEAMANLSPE
From the text: In some embodiments, one or more of the compounds according to the invention may specifically bind a GBA2. In alternative embodiments, one or more of the compounds according to the invention may specifically bind the active site of a GBA2. […] In alternative embodiments, one or more of the compounds according to the invention may specifically bind the human non-lysosomal glucosylceramidase (GBA2) over the human lysosomal glucosylceramidase (GCase) and/or the human cytosolic glucosylceramidase (GBA3). In alternative embodiments, one or more of the compounds according to the invention may specifically bind the human non-lysosomal glucosylceramidase (GBA2) over the human glucosylceramide synthase (GCS). In alternative embodiments, one or more of the compounds according to the invention may specifically bind the human non-lysosomal glucosylceramidase (GBA2) over an intestinal alpha-glucosidase, where the intestinal alpha-glucosidase may be a sucrase-isomaltase or a maltase-glucoamylase.

[3] = target: T1, GBA2; test: Determination of IC50 values for inhibition of GBA2 in cell lysate; assay type: biochemical; parameters: host or cells: HEK293T (lentiviral transduction, puromycin selection); used as cellular homogenate
Summary of the method: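 Fluorogenic 4-MU-β-glucoside (250 μM) turnover over 20 min at 37 °C, pH 5.5, measured after NaOH/glycine stop (ex 365, em 450 nm). Enzyme source: lysate (0.083 mg/mL) of lentivirally transduced GBA2-HEK293T, GCase blocked by 20 μM azaspiro-octanediol; compound preincubated 5 min; IC50 = 50% inhibition concentration.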

[4] = cellular homogenate of HEK293T cells overexpressing human GBA2, 250 μM 4-methylumbelliferone-β-D glucopyranoside, pH 5.5, 37° C., GCase inhibitor present, read-out: GBA2 IC50

Structure (SMILES): CC(C)[C@H]1CC[C@@H](CN2C[C@H](O)[C@@H](O)[C@H](O)[C@H]2C)CC1 [Example 7, (2R,3R,4R,5S)-1-(((1s,4S)-4-isopropylcyclohexyl)methyl)-2-methylpiperidine-3,4,5-triol]
- brain concentration when administered in vivo [1]: higher brain concentrations
- binding specificity (IC50 or Ki of other molecule / GBA2) [2]: enhanced binding specificity
- IC50 [3, 4]: < 100 nM

Structure (SMILES): C[C@@H]1[C@@H](O)[C@H](O)[C@@H](O)CN1C[C@H]1CC[C@H](C(F)(F)F)CC1 [Example 12, (2R,3R,4R,5S)-2-methyl-1-(((1r,4R)-4-(trifluoromethyl)cyclohexyl)methyl)piperidine-3,4,5-triol]
- brain concentration when administered in vivo [1]: higher brain concentrations
- binding specificity (IC50 or Ki of other molecule / GBA2) [2]: enhanced binding specificity
- IC50 [3, 4]: < 100 nM

Structure (SMILES): C[C@@H]1[C@@H](O)[C@H](O)[C@@H](O)CN1CCc1cccc(Cl)c1F [Example 45, (2R,3R,4R,5S)-1-(3-chloro-2-fluorophenethyl)-2-methylpiperidine-3,4,5-triol]
- brain concentration when administered in vivo [1]: higher brain concentrations
- binding specificity (IC50 or Ki of other molecule / GBA2) [2]: enhanced binding specificity
- IC50 [3]: < 100 nM

Structure (SMILES): C[C@@H]1[C@@H](O)[C@H](O)[C@@H](O)CN1CCc1c(F)ccc(Cl)c1F [Example 49, (2R,3R,4R,5S)-1-(3-chloro-2,6-difluorophenethyl)-2-methylpiperidine-3,4,5-triol]
- brain concentration when administered in vivo [1]: higher brain concentrations
- binding specificity (IC50 or Ki of other molecule / GBA2) [2]: enhanced binding specificity
- IC50 [3]: < 100 nM

Structure (SMILES): C[C@@H]1[C@@H](O)[C@H](O)[C@@H](O)CN1CC1CCN(c2ccc(F)cc2)CC1 [Example 85, (2R,3R,4R,5S)-1-((1-(4-fluorophenyl)piperidin-4-yl)methyl)-2-methylpiperidine-3,4,5-triol]
- brain concentration when administered in vivo [1]: higher brain concentrations
- IC50 [3, 4]: < 100 nM

Structure (SMILES): C[C@@H]1[C@@H](O)[C@H](O)[C@@H](O)CN1C[C@H]1CCCN(c2ccccc2F)C1 [Example 137, (2R,3R,4R,5S)-1-(((R)-1-(2-fluorophenyl)piperidin-3-yl)methyl)-2-methylpiperidine-3,4,5-triol]
- binding specificity (IC50 or Ki of other molecule / GBA2) [2]: enhanced binding specificity
- IC50 [3, 4]: < 100 nM

Structure (SMILES): C[C@@H]1[C@@H](O)[C@H](O)[C@@H](O)CN1C[C@H]1CCCN(c2ncccc2C(F)(F)F)C1 [Example 138, (2R,3R,4R,5S)-2-methyl-1-(((R)-1-(3-(trifluoromethyl)pyridin-2-yl)piperidin-3-yl)methyl)piperidine-3,4,5-triol]
- binding specificity (IC50 or Ki of other molecule / GBA2) [2]: enhanced binding specificity
- IC50 [3, 4]: < 100 nM

Structure (SMILES): C[C@@H]1[C@@H](O)[C@H](O)[C@@H](O)CN1C[C@H]1CCCN(c2cccc(C(F)(F)F)n2)C1 [Example 139, (2R,3R,4R,5S)-2-methyl-1-(((R)-1-(6-(trifluoromethyl)pyridin-2-yl)piperidin-3-yl)methyl)piperidine-3,4,5-triol]
- binding specificity (IC50 or Ki of other molecule / GBA2) [2]: enhanced binding specificity
- IC50 [3, 4]: < 100 nM

Structure (SMILES): C[C@@H]1[C@@H](O)[C@H](O)[C@@H](O)CN1C[C@H]1CCCN(c2cnccc2C(F)(F)F)C1 [Example 140, (2R,3R,4R,5S)-2-methyl-1-(((R)-1-(4-(trifluoromethyl)pyridin-3-yl)piperidin-3-yl)methyl)piperidine-3,4,5-triol]
- binding specificity (IC50 or Ki of other molecule / GBA2) [2]: enhanced binding specificity
- IC50 [3, 4]: < 100 nM

Structure (SMILES): C[C@@H]1[C@@H](O)[C@H](O)[C@@H](O)CN1C[C@@H]1CCCN(c2ncccc2C(F)(F)F)C1 [Example 141, (2R,3R,4R,5S)-2-methyl-1-(((S)-1-(3-(trifluoromethyl)pyridin-2-yl)piperidin-3-yl)methyl)piperidine-3,4,5-triol]
- binding specificity (IC50 or Ki of other molecule / GBA2) [2]: enhanced binding specificity
- IC50 [3, 4]: < 100 nM

Structure (SMILES): C[C@@H]1[C@@H](O)[C@H](O)[C@@H](O)CN1C[C@@H]1CCCN(c2cnccc2C(F)(F)F)C1 [Example 142, (2R,3R,4R,5S)-2-methyl-1-(((S)-1-(4-(trifluoromethyl)pyridin-3-yl)piperidin-3-yl)methyl)piperidine-3,4,5-triol]
- binding specificity (IC50 or Ki of other molecule / GBA2) [2]: enhanced binding specificity
- IC50 [3, 4]: < 100 nM

Structure (SMILES): O[C@H]1[C@H](O)[C@@H](O)CN(C[C@H]2CC[C@H](C(F)(F)F)CC2)[C@@H]1CF [Example 147, (2S,3R,4R,5S)-2-(fluoromethyl)-1-(((1r,4S)-4-(trifluoromethyl)cyclohexyl)methyl)piperidine-3,4,5-triol]
- binding specificity (IC50 or Ki of other molecule / GBA2) [2]: enhanced binding specificity
- IC50 [3, 4]: < 100 nM

Structure (SMILES): O[C@H]1[C@H](O)[C@@H](O)CN(CCc2c(F)cc(-c3ccccc3)cc2F)[C@@H]1CF [Example 151, (2S,3R,4R,5S)-1-(2-(3,5-difluoro-[1,1′-biphenyl]-4-yl)ethyl)-2-(fluoromethyl)piperidine-3,4,5-triol]
- binding specificity (IC50 or Ki of other molecule / GBA2) [2]: enhanced binding specificity
- IC50 [3, 4]: < 100 nM

Structure (SMILES): O[C@H]1[C@H](O)[C@@H](O)CN(CCc2cc3c(cc2F)OCO3)[C@@H]1CF [Example 152, (2S,3R,4R,5S)-1-(2-(6-fluorobenzo[d][1,3]dioxol-5-yl)ethyl)-2-(fluoromethyl)piperidine-3,4,5-triol]
- binding specificity (IC50 or Ki of other molecule / GBA2) [2]: enhanced binding specificity
- IC50 [3]: < 100 nM
